For the test, the target named is Gamma-aminobutyric acid type B receptor subunit 1/2 (UniProt Q9Z0U4+O88871). The test can be described thus: Displacement of [3H]baclofen from Gamma-aminobutyric acid type B receptor in rat brain membranes. Background: Displacement assays read how much labelled ligand stays bound in the presence of the test substance.
Sequence of Gamma-aminobutyric acid type B receptor subunit 1/2 (Q9Z0U4 whole entry): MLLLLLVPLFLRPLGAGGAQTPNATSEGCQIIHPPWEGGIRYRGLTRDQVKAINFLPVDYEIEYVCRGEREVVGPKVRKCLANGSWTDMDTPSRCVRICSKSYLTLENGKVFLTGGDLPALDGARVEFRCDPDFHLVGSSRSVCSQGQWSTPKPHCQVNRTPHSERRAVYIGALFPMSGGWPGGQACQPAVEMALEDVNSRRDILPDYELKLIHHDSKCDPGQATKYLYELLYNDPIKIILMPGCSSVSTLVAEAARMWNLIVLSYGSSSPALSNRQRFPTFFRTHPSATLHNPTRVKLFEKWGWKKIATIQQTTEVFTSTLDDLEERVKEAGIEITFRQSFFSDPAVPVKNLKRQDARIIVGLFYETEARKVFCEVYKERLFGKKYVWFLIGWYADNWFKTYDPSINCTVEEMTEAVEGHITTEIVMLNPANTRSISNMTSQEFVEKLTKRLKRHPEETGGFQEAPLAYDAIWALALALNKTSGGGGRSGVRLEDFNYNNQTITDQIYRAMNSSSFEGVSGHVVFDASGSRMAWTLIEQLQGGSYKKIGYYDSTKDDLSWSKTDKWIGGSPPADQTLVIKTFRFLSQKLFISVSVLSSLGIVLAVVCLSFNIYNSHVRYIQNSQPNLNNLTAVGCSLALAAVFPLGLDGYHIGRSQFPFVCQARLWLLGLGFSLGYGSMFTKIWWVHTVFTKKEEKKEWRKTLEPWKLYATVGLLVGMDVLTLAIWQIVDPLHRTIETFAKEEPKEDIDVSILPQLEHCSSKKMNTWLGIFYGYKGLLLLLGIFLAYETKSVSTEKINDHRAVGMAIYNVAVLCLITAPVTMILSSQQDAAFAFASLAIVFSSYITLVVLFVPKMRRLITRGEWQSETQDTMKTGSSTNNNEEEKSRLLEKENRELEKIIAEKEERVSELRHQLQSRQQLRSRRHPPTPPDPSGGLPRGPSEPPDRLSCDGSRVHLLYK
Sequence of Gamma-aminobutyric acid type B receptor subunit 1/2 (O88871 whole entry): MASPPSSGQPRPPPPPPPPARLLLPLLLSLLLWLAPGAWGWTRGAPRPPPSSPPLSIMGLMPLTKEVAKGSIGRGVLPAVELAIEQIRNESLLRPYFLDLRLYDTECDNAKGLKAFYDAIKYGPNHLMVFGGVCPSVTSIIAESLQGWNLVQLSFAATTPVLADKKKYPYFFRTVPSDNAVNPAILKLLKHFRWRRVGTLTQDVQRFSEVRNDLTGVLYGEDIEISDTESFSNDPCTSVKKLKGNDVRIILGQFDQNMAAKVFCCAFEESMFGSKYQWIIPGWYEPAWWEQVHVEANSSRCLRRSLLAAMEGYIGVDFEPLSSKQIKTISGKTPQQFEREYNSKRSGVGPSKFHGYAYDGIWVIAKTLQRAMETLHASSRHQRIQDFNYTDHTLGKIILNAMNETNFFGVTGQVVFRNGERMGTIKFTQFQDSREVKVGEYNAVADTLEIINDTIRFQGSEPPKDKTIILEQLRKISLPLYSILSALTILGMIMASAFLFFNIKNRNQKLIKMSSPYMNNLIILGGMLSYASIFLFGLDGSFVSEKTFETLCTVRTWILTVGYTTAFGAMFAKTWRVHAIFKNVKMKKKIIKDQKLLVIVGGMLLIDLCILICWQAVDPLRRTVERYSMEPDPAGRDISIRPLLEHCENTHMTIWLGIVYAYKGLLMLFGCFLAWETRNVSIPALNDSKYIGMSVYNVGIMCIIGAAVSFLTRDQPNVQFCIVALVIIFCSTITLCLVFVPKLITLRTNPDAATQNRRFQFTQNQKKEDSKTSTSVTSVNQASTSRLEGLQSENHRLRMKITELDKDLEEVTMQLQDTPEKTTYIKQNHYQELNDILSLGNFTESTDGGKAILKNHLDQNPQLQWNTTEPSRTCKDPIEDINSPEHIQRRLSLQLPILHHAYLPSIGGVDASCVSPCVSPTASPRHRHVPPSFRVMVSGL

As to `NCC1CC(=O)CC(=O)C1`, the half-inhibitory concentration (IC50) is greater than 100 µM.

For orientation: IC50 means the point on the concentration scale where inhibition reaches its midpoint.

Values taken from BindingDB's records for doi:10.1021/jm00148a012 (1985).
